Measured values as given in patent US20150125402A1, “ANTIMICROBIAL AGENTS” (BEDOUKIAN RESEARCH, INC., priority 2012, published 2015).
Values after ≈ are worked out from the molar mass of the structure shown.

Experiments:
Assay type in all cases: cell-based
Aspergillus brasiliensis = assay: Minimum Inhibition Concentration (MIC) screen; conditions: strain ATTC 16404
Description: (§1) To test the compounds as antimicrobial agents, the compounds were screened for activity to inhibit bacteria, yeast and mold. The Minimum Inhibition Concentration (MIC) is determined as the lowest concentration activity to inhibit the microorganism.

Candida albicans = assay: Minimum Inhibition Concentration (MIC) screen; conditions: strain ATTC 10231
Description: as §1

Escherichia coli [1] = assay: Minimum Inhibition Concentration (MIC) screen; conditions: strain ATTC 10536
Description: as §1

Pseudomonas aeruginosa = assay: Minimum Inhibition Concentration (MIC) screen; conditions: strain ATTC 15442
Description: as §1

Staphylococcus aureus [2] = assay: Minimum Inhibition Concentration (MIC) screen; conditions: strain ATTC 6538
Description: as §1

[3] = tested on: Staphylococcus epidermidis; assay: Minimum Inhibition Concentration (MIC) screen; conditions: strain ATTC 12228
Description: as §1

Escherichia coli [4] = assay: Bactericidal activity in solution (Activity % Reduction); conditions: 2000 ppm in water at ambient temperature
Description: (§2) In a second assay, compounds of this invention were screened for activity to kill bacteria in solution over a short period of time. Bactericidal activity is expressed as Activity % Reduction. All samples were tested in water at ambient temperature and at a concentration of 2000 ppm.

Staphylococcus aureus [5] = assay: as above; conditions: 2000 ppm in water at ambient temperature
Description: as §2

MIC (Aspergillus brasiliensis)	MIC (Candida albicans)	MIC (Escherichia coli [1])	MIC (Pseudomonas aeruginosa)	MIC (Staphylococcus aureus [2])	MIC [3]	Compound	inhibition at 2000 ppm (Escherichia coli [4]; 5 min)	inhibition at 2000 ppm (Escherichia coli [4]; 1 hour)	inhibition at 2000 ppm (Staphylococcus aureus [5]; 5 min)	inhibition at 2000 ppm (Staphylococcus aureus [5]; 1 hour)
250 µg/mL (≈ 1.49 mM)	125 µg/mL (≈ 0.743 mM)	> 1000 µg/mL	> 1000 µg/mL	125 µg/mL (≈ 0.743 mM)	125 µg/mL (≈ 0.743 mM)	CCCCC1CC(C)=CC(O)C1 (stereo not shown) [3-Methyl-5-Butyl-2-Cyclohexenol, 3-methyl-5-butyl-2-cyclohexenol]	34.7%	88.5%	28.4%	39%
250 µg/mL (≈ 1.5 mM)	500 µg/mL (≈ 3.01 mM)	500 µg/mL (≈ 3.01 mM)	> 1000 µg/mL	500 µg/mL (≈ 3.01 mM)	1000 µg/mL (≈ 6.01 mM)	CCCCC1CC(=O)C=C(C)C1 (stereo not shown) [3-Methyl-5-Butyl-2-Cyclohexenone, 3-methyl-5-butyl-2-cyclohexenone]	83.8%	100%	33.9%	33.2%
> 1000 µg/mL	> 1000 µg/mL	> 1000 µg/mL	> 1000 µg/mL	15.6 µg/mL (≈ 0.0749 mM)	31.2 µg/mL (≈ 0.15 mM)	CCCCCCCC1CC(=O)C=C(C)C1 (stereo not shown) [3-Methyl-5-Heptyl-2-Cyclohexenone, 3-methyl-5-heptyl-2-cyclohexenone]	13.9%	25%	37.6%	24.1%
500 µg/mL (≈ 3.28 mM)	1000 µg/mL (≈ 6.57 mM)	1000 µg/mL (≈ 6.57 mM)	> 1000 µg/mL	1000 µg/mL (≈ 6.57 mM)	> 1000 µg/mL	CCCC1CC(=O)C=C(C)C1 (stereo not shown) [3-Methyl-5-Propyl-2-Cyclohexenone, 3-methyl-5-propyl-2-cyclohexenone]	69.5%	99%	29.2%	33.9%
